{
  "source": "patent US20230241190A1",
  "about": "“VACCINE FOR TREATING MULTIPLE SCLEROSIS” (RESEARCH & BUSINESS FOUNDATION SUNGKYUNKWAN UNIVERSITY, priority 2022, published 2023)",
  "system": "EAE (experimental autoimmune encephalomyelitis)",
  "assay": "EAE semi-therapeutic vaccine study (clinical score, EAE-free mice)",
  "format": "in vivo, C57BL/6 mice",
  "conditions": "intravenous injection on days 4, 7 and 10 after EAE induction (semi-therapeutics)",
  "procedure": "EAE was induced in female C57BL/6 mice aged 10-11 weeks using a kit (EK-2110) from Hooke Laboratory (Lawrence, Mass., USA). Briefly, on day 0, mice were subcutaneously injected with an emulsion containing MOG35-55 peptide and complete Freund's adjuvant (CFA), in the lower and upper back. After 2 and 24 h, the animals were intraperitoneally injected with pertussis toxin (PTX) according to the manufacturer's instructions. EAE clinical score was evaluated after day 8, post-EAE induction based on the standard protocol in a blinded manner (0, no obvious symptoms; 0.5, tip of tail was limp; 1, limp tail; 1.5, limp tail and hind leg inhibition; 2, limp tail and weakness of hind legs; 2.5, limp tail and dragging of hind legs; 3, complete paralysis of hind legs; 3.5, complete paralysis of hind legs and hind legs together on one side of the body; 4, full hind leg and partial front leg paralysis; 4.5 full hind leg and partial front leg paralysis, no movement). Paralyzed mice were given easier access to water and food. Mice were euthanized if any of the following conditions were observed unable to eat, unresponsive when scored as 4, when scored as 4 for two consecutive days, both hind limbs and forelimbs were completely paralyzed. […]",
  "data": [
    {"substance": "myelin oligodendrocyte glycoprotein (MOG) peptide 35-55 [soluble MOG]", "values": [
      {"measurement": "EAE progression / development (clinical score)", "result": "slightly delayed EAE progression"}
    ]}
  ]
}
